Measured values taken from patent US12139558B2, “Method of manufacturing a pharmaceutical composition” (Ferring B.V., priority 2017, dated 2024).
Starred links: 1 amine or outer side, 2 acyl side, 3 side chain; linkers in the order of their positions; H or OH if unused. Positions of bridges follow the written chain, without caps; N, C: chain ends. Residues, ends and D or L forms follow the SMILES beside them. X1 = O=C(CCC[*:2])[*:1]

What was measured:
[1] = test system: Prader-Willi Syndrome patients; details: after 15 days, vs placebo treated patients; cited from earlier work
[2] = assay type: physicochemical
Experimental: The next day the solids were analysed by HPLC for purity and assay (FIG. 3b), TG/DTA for ease of mass loss/thermal events (FIG. 4b) as well as polarised light microscopy (PLM) and XRPD for morphology and crystalline content. […] These mass losses correspond to weakly surface bound acetonitrile and water, and are not indicative of any solvation of the crystal form itself.

[3] = Gravimetric vapour sorption (GVS) of crystals; assay type: physicochemical; details: 25° C.
Experimental: Gravimetric vapour sorption (GVS) was performed on an SMS DVS-1. 1.4 mg of crystals and powder were added into an Al pan and exposed to stepwise relative humidity (RH) changes during two consecutive cycles: 20-30-40-50-60-70-80-70-60-50-40-30-20-10-0-10-20-30-40-50-60-70-80-90-80-70-60-50-40-30-20-10-0% RH in an open loop mode. The temperature was maintained at 25° C. and pure nitrogen flow rate of 200 ml/min was used. The dm/dt criteria applied was 0.001 weight-%/min during a 5 minute window, with a maximum time of 150 minutes for all steps, with the exception of steps at 0% RH that were set to 6 hours.

In the case of `CC[C@H](C)[C@@H]1NC(=O)[C@H](Cc2ccc(OC)cc2)NC(=O)CCCSC[C@@H](C(=O)N2CCC[C@H]2C(=O)N[C@@H](CC(C)C)C(=O)NCC(N)=O)NC(=O)[C@H](CC(N)=O)NC(=O)[C@H](CCC(N)=O)NC1=O` [carbetocin, 1-butanoic acid-2-(O-methyl-L-tyrosine)-1-carbaoxytocin] (Y(Me)IQNCPLG-NH2; linker N-5 via X1), the “improvement over placebo in measurements of hyperphagia, obsessive compulsive disorder, food seeking behaviour and clinical global impression” value [1] is listed as “statistically significant improvement over placebo treated patients”.
In the case of `CC[C@H](C)[C@@H]1NC(=O)[C@H](Cc2ccc(OC)cc2)NC(=O)CCCSC[C@@H](C(=O)N2CCC[C@H]2C(=O)N[C@@H](CC(C)C)C(=O)NCC(N)=O)NC(=O)[C@H](CC(N)=O)NC(=O)[C@H](CCC(N)=O)NC1=O` [Form II, carbetocin] (Y(Me)IQNCPLG-NH2; linker N-5 via X1), the “total mass loss (TG/DTA)” value ([2]; up to 110° C., crystals of Example 4, FIG. 4b) is reported as “approximately 0.8%”, the “first mass loss (TG/DTA)” value ([2]; up to approximately 60° C., weakly surface bound acetonitrile and water) is reported as “approximately 0.5%” and the “second mass loss (TG/DTA)” value ([2]; up to approximately 110° C., weakly surface bound acetonitrile and water) is reported as “approximately 0.3%”.
In the case of `CC[C@H](C)[C@@H]1NC(=O)[C@H](Cc2ccc(OC)cc2)NC(=O)CCCSC[C@@H](C(=O)N2CCC[C@H]2C(=O)N[C@@H](CC(C)C)C(=O)NCC(N)=O)NC(=O)[C@H](CC(N)=O)NC(=O)[C@H](CCC(N)=O)NC1=O` [Form III, carbetocin] (Y(Me)IQNCPLG-NH2; linker N-5 via X1), the “GVS isotherm plateau (monohydrate plus some loosely bound surface water)” value ([3]; crystals of Example 5, FIG. 8b) is reported as “around 2 % (w/w)”, the “GVS second plateau, additional (pentahydrate with some loosely bound surface water)” value ([3]; crystals of Example 5, FIG. 8b) is reported as “approximately 8 % (w/w)” and the “relative humidity at which the pentahydrate exists” value ([3]; sorption) is reported as no less than 60 % RH.
